Patent US20070129344A1, “Bicyclic 6-alkylidene-penem beta-lactamase inhibitors and beta-lactam antibiotic combination: a broad spectrum antibiotic” (priority 2005, published 2007)
In brackets after ≈: the same amount, converted by molar mass. Read-outs that look alike come from different tables or passages of the source.

Assays:
[1] = test system: K. pneumoniae GC 7632 TEM-1 KPC-2, SHV-7, SHV-12; experiment: MIC microbroth dilution; β-lactamase class A, A (Cb'ase), A (ESBL); type: cell-based; conditions: Cefepime alone
Procedure: (§1) The in vitro activities of the antibiotics were determined by the microbroth dilution method as recommended by the National Committee for Clinical Laboratory Standards (NCCLS). (NCCLS. 2000. Methods for Dilution Antimicrobial Susceptibility Tests for Bacteria That Grow Aerobically; Approved Standards: M7-A5, vol. 19. National Committee for Clinical Laboratory Standards, Villanova, Pa.). Mueller-Hinton II broth (MHBII)(BBL Cockeysville, Md.), was used for the testing procedure. […]. The plates were incubated for 18-22 hours at 35° C. in ambient air.

E. cloacae GC 1475 (P99) = experiment: MIC microbroth dilution; β-lactamase class C; type: cell-based; conditions: Cefepime alone
Procedure: as §1

[2] = test system: E. cloacae GC 6991 (AmpC); experiment: MIC microbroth dilution; β-lactamase class C; type: cell-based; conditions: Enterobacter cloacae, Cefepime alone, read-out: MIC
Procedure: as §1

E. coli GC 2894 (AmpC) = experiment: MIC microbroth dilution; β-lactamase class C; type: cell-based; conditions: Escherichia coli, Cefepime alone, read-out: MIC
Procedure: as §1

E. coli GC 6539 CMY-2 = experiment: MIC microbroth dilution; β-lactamase class C; type: cell-based
Procedure: as §1

[3] = test system: P. aeruginosa GC 1763 AmpC-inducible; experiment: MIC microbroth dilution; β-lactamase class C; type: cell-based; conditions: Cefepime alone
Procedure: as §1

[4] = test system: S. marcescens GC 4132 (AmpC); experiment: MIC microbroth dilution; β-lactamase class C; type: cell-based; conditions: Serratia marcescens, Cefepime alone, read-out: MIC
Procedure: as §1

[5] = test system: P. aeruginosa PT 8411 PTZ-R; experiment: MIC microbroth dilution; type: cell-based; conditions: Cefepime alone
Procedure: as §1

[6] = test system: P. aeruginosa PT 8503 PTZ-R; experiment: MIC microbroth dilution; type: cell-based; conditions: Cefepime alone
Procedure: as §1

[7] = test system: P. aeruginosa PT 9236 PTZ-R; experiment: MIC microbroth dilution; type: cell-based; conditions: Cefepime alone
Procedure: as §1

[8] = test system: P. aeruginosa PT 9587 PTZ-R; experiment: MIC microbroth dilution; type: cell-based; conditions: Cefepime alone
Procedure: as §1

[9] = test system: K. pn GC 3104 (MIR-1 + TEM-1); experiment: MIC microbroth dilution; β-lactamase class A, C; type: cell-based, K. pneumoniae; conditions: Klebsiella pneumoniae, Cefepime alone, read-out: MIC
Procedure: as §1

[10] = test system: K. pn GC 6655 (TEM-1 + ACT-1); experiment: MIC microbroth dilution; β-lactamase class A, C; type: cell-based, K. pneumoniae; conditions: Klebsiella pneumoniae, Cefepime alone, read-out: MIC
Procedure: as §1

[11] = test system: E. coli GAR 5929 TEM, OXA, Act-1, CTX (By PCR only); experiment: MIC microbroth dilution; β-lactamase class A, C, D; type: cell-based; conditions: Cefepime alone
Procedure: as §1

[12] = test system: A. baumannii GC 6660 IMI-R; experiment: MIC microbroth dilution; class PBP (penicillin binding protein); type: cell-based; conditions: Cefepime alone
Procedure: as §1

[13] = test system: A. baumannii GC 6661 IMI-R; experiment: as above; type: cell-based; conditions: Cefepime alone
Procedure: as §1

[14] = test system: A. baumannii GC 6662 IMI-R; experiment: as above; type: cell-based; conditions: Cefepime alone
Procedure: as §1

## CO/N=C(\C(=O)N[C@@H]1C(=O)N2C(C(=O)[O-])=C(C[N+]3(C)CCCC3)CS[C@H]12)c1csc(N)n1 [Cefepime, reference compound]
[1]; control of Compound 2 test
  MIC: >16 µg/mL
[1]; Klebsiella pneumoniae, control of Compound 1 test, read-out: MIC
  MIC: > 16 µg/mL
E. cloacae GC 1475 (P99); control of Compound 2 test
  MIC: 2 µg/mL (≈ 4.16 µM)
E. cloacae GC 1475 (P99); Enterobacter cloacae, control of Compound 1 test, read-out: MIC
  MIC: 2 µg/mL (≈ 4.16 µM)
[2]; control of Compound 1 test
  MIC: 0.5 µg/mL (≈ 1.04 µM)
[2]; control of Compound 2 test
  MIC: 1 µg/mL (≈ 2.08 µM)
E. coli GC 2894 (AmpC); control of Compound 1 test
  MIC: 2 µg/mL (≈ 4.16 µM)
E. coli GC 2894 (AmpC); control of Compound 2 test
  MIC: 4 µg/mL (≈ 8.32 µM)
E. coli GC 6539 CMY-2; Cefepime alone, control of Compound 2 test
  MIC: 2 µg/mL (≈ 4.16 µM)
E. coli GC 6539 CMY-2; Escherichia coli, GC6539CMY2, Cefepime alone, control of Compound 1 test, read-out: MIC
  MIC: 2 µg/mL (≈ 4.16 µM)
[3]; control of Compound 2 test
  MIC: 2 µg/mL (≈ 4.16 µM)
[3]; Pseudomonas aeruginosa, control of Compound 1 test, read-out: MIC
  MIC: 2 µg/mL (≈ 4.16 µM)
[4]; control of Compound 1 test
  MIC: 0.5 µg/mL (≈ 1.04 µM)
[4]; control of Compound 2 test
  MIC: 2 µg/mL (≈ 4.16 µM)
[5]; control of Compound 2 test
  MIC: 16 µg/mL (≈ 33.3 µM)
[5]; Pseudomonas aeruginosa, PT8411PTZR, control of Compound 1 test, read-out: MIC
  MIC: 16 µg/mL (≈ 33.3 µM)
[6]; control of Compound 2 test
  MIC: 8 µg/mL (≈ 16.6 µM)
[6]; Pseudomonas aeruginosa, PT8503PTZR, control of Compound 1 test, read-out: MIC
  MIC: 8 µg/mL (≈ 16.6 µM)
[7]; control of Compound 2 test
  MIC: >16 µg/mL
[7]; Pseudomonas aeruginosa, PT9236PTZR, control of Compound 1 test, read-out: MIC
  MIC: > 16 µg/mL
[8]; control of Compound 2 test
  MIC: 4 µg/mL (≈ 8.32 µM)
[8]; Pseudomonas aeruginosa, PT9587PTZR, control of Compound 1 test, read-out: MIC
  MIC: 4 µg/mL (≈ 8.32 µM)
[9]; control of Compound 1 test
  MIC: 0.5 µg/mL (≈ 1.04 µM)
[9]; control of Compound 2 test
  MIC: 1 µg/mL (≈ 2.08 µM)
[10]; control of Compound 1 test
  MIC: 2 µg/mL (≈ 4.16 µM)
[10]; control of Compound 2 test
  MIC: 4 µg/mL (≈ 8.32 µM)
[11]; control of Compound 2 test
  MIC: >16 µg/mL
[11]; Escherichia coli, control of Compound 1 test, read-out: MIC
  MIC: > 16 µg/mL
[12]; Acinetobacter baumannii, GC6660IMIR, control of Compound 1 test, read-out: MIC
  MIC: > 16 µg/mL
[12]; control of Compound 2 test
  MIC: >16 µg/mL
[13]; Acinetobacter baumannii, GC6661IMIR, control of Compound 1 test, read-out: MIC
  MIC: > 16 µg/mL
[13]; control of Compound 2 test
  MIC: >16 µg/mL
[14]; Acinetobacter baumannii, GC6662IMIR, control of Compound 1 test, read-out: MIC
  MIC: > 16 µg/mL
[14]; control of Compound 2 test
  MIC: >16 µg/mL
